Test system: Ras processing in COS cells
Experiment: Cell-based assay: inhibition of Ras processing in COS cells
Settings: not given
Method: (§1) 1. In vitro enzyme assays: FPT IC50 (inhibition of farnesyl protein transferase, in vitro enzyme assay) are determined by the methods disclosed in […] or WO 95/10516. […] 2. Cell-based assay. COS IC50 values refer to the COS cells activity inhibition of Ras processing, are determined by the methods disclosed in […] or WO 95/10516.

Row | SMILES | IC50 [nM]
1 | O=C(CO/N=C/c1cc[n+]([O-])cc1)N1CCC([C@H]2c3ncc(Br)cc3CCc3cc(Cl)cc(Br)c32)CC1 [Example 6] | 690

Biological target: T1, partially purified rat brain farnesyl protein transferase (FPT) (Rattus norvegicus, UniProt Q02293+Q04631)
T1 construct: partially purified rat brain farnesyl protein transferase (FPT); from tissue; host or cells: rat brain
Experiment: In vitro enzyme assay: inhibition of Ras-CVLS farnesylation by farnesyl protein transferase (FPT)
Format: biochemical
Settings: H-ras (Ras-CVLS) substrate; methods of WO 95/10515 or WO 95/10516
Method: as §1

T1 sequence (Q02293 whole entry, one chain of several): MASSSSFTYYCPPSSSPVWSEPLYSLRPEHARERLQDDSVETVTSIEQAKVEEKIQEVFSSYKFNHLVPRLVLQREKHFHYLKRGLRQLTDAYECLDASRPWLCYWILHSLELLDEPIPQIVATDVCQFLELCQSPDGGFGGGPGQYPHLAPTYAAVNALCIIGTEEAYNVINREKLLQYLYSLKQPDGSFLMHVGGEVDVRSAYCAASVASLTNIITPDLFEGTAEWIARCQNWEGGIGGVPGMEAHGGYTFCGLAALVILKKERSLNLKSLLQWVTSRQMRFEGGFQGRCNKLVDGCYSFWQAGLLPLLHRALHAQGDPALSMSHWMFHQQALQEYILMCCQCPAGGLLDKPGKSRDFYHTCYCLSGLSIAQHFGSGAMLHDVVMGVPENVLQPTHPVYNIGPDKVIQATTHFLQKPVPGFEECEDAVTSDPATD

Row | SMILES | IC50 [nM]
2 | CC(C)=NOCC(=O)N1CCC([C@H]2c3ncc(Br)cc3CCc3cc(Cl)cc(Br)c32)CC1 [Example 2] | 6.5
3 | COc1ccc(/C(C)=N/OCC(=O)N2CCC([C@H]3c4ncc(Br)cc4CCc4cc(Cl)cc(Br)c43)CC2)cc1 [Example 3] | 180
4 | CC(C)=NOCCC(=O)N1CCC([C@H]2c3ncc(Br)cc3CCc3cc(Cl)cc(Br)c32)CC1 [Example 4, (+)-4-(3,10-dibromo-8-chloro-6,11-dihydro-5H-benzo[5,6]cyclohepta[1,2-b]pyridin-11(R)-yl)-1-[3-[[(1-methylethylidene]amino]oxy]-1-oxopropyl]piperidine] | 54
5 | CC(C)(C)OC(=O)NOCC(=O)N1CCC([C@H]2c3ncc(Br)cc3CCc3cc(Cl)cc(Br)c32)CC1 [Example 5, (+)-1,1-Dimethylethyl-N-[2-[4-(3,10-dibromo-8-chloro-6,11-dihydro-5H-benzo[5,6]cyclohepta[1,2-b]pyridin-11(R)-yl)-1-piperidinyl]-2-oxoethoxy]carbamate] | 170
6 | O=C(CO/N=C/c1cc[n+]([O-])cc1)N1CCC([C@H]2c3ncc(Br)cc3CCc3cc(Cl)cc(Br)c32)CC1 [Example 6] | 3.6
7 | O=C(CO/N=C/c1ccccc1O)N1CCC([C@H]2c3ncc(Br)cc3CCc3cc(Cl)cc(Br)c32)CC1 [Example 7] | 370
8 | C/C(=N\OCC(=O)N1CCC([C@H]2c3ncc(Br)cc3CCc3cc(Cl)cc(Br)c32)CC1)c1ccc(Cl)cc1 [Example 8, (+)-1-[[[[(E)-1-(4-chlorophenyl)ethylidene]amino]oxy]acetyl]-4-(3,10-dibromo-8-chloro-6,11-dihydro-5H-benzo[5,6]cyclohepta[1,2-b]pyridin-11(R)-yl)piperidine] | > 180
9 | C/C(=N\OCC(=O)N1CCC([C@H]2c3ncc(Br)cc3CCc3cc(Cl)cc(Br)c32)CC1)c1cccs1 [Example 9, (+)-4-(3,10-dibromo-8-chloro-6,11-dihydro-5H-benzo[5,6]cyclohepta[1,2-b]pyridin-11(R)-yl)-1-[[[[(E)-1-(2-thienyl)ethylidene]amino]oxy]acetyl]piperidine] | 150
10 | O=C(CON=C1CCCCC1)N1CCC([C@H]2c3ncc(Br)cc3CCc3cc(Cl)cc(Br)c32)CC1 [Example 10, (+)-4-(3,10-dibromo-8-chloro-6,11-dihydro-5H-benzo[5,6]cyclohepta[1,2-b]pyridin-11(R)-yl)-1-[[[[(cyclohexylidene]amino]]oxy]acetyl]piperidine] | 35
11 | O=C(CON=C1CCC2(CC1)OCCO2)N1CCC([C@H]2c3ncc(Br)cc3CCc3cc(Cl)cc(Br)c32)CC1 [Example 11] | 24
12 | O=C(CON=C1CCOCC1)N1CCC([C@H]2c3ncc(Br)cc3CCc3cc(Cl)cc(Br)c32)CC1 [Example 12] | 12
13 | O=C(CON=C1CCSCC1)N1CCC([C@H]2c3ncc(Br)cc3CCc3cc(Cl)cc(Br)c32)CC1 [Example 13] | 13
14 | CC(=O)NOCC(=O)N1CCC([C@H]2c3ncc(Br)cc3CCc3cc(Cl)cc(Br)c32)CC1 [Example 14, (+)-N-[2-[4-(3,10-dibromo-8-chloro-6,11-dihydro-5H-benzo[5,6]cyclohepta[1,2-b]pyridin-11(R)-yl)-1-piperidinyl]-2-oxoethoxy]acetamide] | 31
